Test results taken from ChEMBL document CHEMBL3039007, “Structure-based identification of OATP1B1/3 inhibitors” (Mol Pharmacol, 2013).

How the values were obtained:
[1] = biological target: T1, Solute carrier organic anion transporter family member 1B1 (Homo sapiens, UniProt Q9Y6L6); settings: chinese hamster, cho, 10 µM
T1 sequence (Q9Y6L6 whole entry): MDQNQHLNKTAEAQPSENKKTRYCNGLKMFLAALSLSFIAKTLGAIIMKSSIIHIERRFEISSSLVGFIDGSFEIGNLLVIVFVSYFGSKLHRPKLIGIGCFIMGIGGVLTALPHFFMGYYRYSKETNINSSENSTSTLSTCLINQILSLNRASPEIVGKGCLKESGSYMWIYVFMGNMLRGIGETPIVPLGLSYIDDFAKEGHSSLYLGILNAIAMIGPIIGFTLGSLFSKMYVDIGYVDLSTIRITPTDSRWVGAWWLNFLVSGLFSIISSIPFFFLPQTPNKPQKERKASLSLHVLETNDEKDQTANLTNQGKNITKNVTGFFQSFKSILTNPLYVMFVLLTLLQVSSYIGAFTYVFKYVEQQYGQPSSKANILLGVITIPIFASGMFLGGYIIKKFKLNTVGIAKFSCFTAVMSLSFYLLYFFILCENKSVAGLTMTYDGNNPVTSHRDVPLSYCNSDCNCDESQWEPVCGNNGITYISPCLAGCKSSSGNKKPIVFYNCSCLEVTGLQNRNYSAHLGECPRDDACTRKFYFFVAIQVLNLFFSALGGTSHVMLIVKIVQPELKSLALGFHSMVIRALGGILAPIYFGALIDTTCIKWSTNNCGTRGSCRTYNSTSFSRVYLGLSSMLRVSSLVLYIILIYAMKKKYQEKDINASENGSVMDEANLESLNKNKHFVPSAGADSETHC

[2] = biological target: T2, Solute carrier organic anion transporter family member 1B3 (Homo sapiens, UniProt Q9NPD5); settings: chinese hamster, cho, 10 µM
T2 sequence (Q9NPD5 whole entry): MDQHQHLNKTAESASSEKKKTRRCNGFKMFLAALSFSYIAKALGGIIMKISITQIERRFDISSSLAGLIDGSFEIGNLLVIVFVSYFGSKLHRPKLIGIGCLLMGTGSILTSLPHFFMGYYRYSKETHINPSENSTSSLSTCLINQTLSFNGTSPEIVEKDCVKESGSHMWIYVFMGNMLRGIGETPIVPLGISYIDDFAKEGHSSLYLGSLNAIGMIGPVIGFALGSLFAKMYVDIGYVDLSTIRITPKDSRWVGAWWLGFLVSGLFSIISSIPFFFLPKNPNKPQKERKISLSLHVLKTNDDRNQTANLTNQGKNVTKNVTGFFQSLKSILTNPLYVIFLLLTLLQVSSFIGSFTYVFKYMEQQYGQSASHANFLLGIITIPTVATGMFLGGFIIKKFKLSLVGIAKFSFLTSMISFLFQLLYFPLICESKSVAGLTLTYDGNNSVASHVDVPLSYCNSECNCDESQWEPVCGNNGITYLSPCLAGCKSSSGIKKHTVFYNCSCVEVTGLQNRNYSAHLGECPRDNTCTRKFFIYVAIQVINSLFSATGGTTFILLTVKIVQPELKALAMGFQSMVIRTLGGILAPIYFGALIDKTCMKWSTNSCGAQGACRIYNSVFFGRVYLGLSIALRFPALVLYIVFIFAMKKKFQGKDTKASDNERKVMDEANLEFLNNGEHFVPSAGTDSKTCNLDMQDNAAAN

Row | SMILES | residual activity [1] [%] | residual activity [2] [%]
1 | Oc1cc(O)c2c(c1)O[C@H](c1cc(O)c(O)c(O)c1)[C@H](O)C2 [EPIGALLOCATECHIN] | 101.7 | 96.72
2 | O=C(O[C@@H]1Cc2c(O)cc(O)cc2O[C@@H]1c1cc(O)c(O)c(O)c1)c1cc(O)c(O)c(O)c1 [EPIGALOCATECHIN GALLATE] | 49.04 | 45.88
3 | C[C@@H]1C(=O)O[C@H]2[C@H]1CC[C@@]1(C)C=CC(=O)[C@@]3(C)O[C@@]213 [EPOXY (4,5alpha)-4,5-DIHYDROSANTONIN] | 91.53 | 88.69
4 | C[C@]12CC[C@H]3C(=CCc4cc(O)ccc43)[C@@H]1CCC2=O [EQUILIN] | 88.55 | 96.05
5 | C[C@@H](CO)NC(=O)[C@@H]1C=C2c3cccc4[nH]cc(c34)C[C@H]2N(C)C1.O=C(O)/C=C\C(=O)O [ERGONOVINE MALEATE] | 69.31 | 84.31
6 | CC(C)[C@@H](C)/C=C/[C@@H](C)[C@H]1CC[C@H]2C3=CCC4CC(=O)CC[C@]4(C)[C@H]3CC[C@]12C (some centres not stated) [ERGOSTA-7,22-DIEN-3-ONE] | 71.12 | 94.39
7 | CC(C)[C@@H](C)/C=C/[C@@H](C)[C@H]1CC[C@H]2C3=CC=C4C[C@@H](O)CC[C@]4(C)[C@H]3CC[C@]12C [ERGOSTEROL] | 31.68 | 52.34
8 | CS(=O)(=O)CCCCN=C=S [ERYSOLIN] | 108.6 | 72.62
9 | CN(C)CCC[C@@]1(c2ccc(F)cc2)OCc2cc(C#N)ccc21.O=C(O)C(=O)O [ESCITALOPRAM OXALATE] | 102.3 | 117.8
10 | O=c1ccc2cc(O)c(O)cc2o1 [ESCULETIN] | 111.1 | 105.3
11 | C[C@]12CC[C@@H]3c4ccc(O)cc4CC[C@H]3[C@@H]1CC[C@@H]2OC(=O)CCC1CCCC1 [ESTRADIOL CYPIONATE] | 81.59 | 90.49
12 | COc1ccc2c(c1)CC[C@@H]1[C@@H]2CC[C@]2(C)[C@@H](O)CC[C@@H]12 [ESTRADIOL METHYL ETHER] | 137.4 | 110
13 | CCCCC(=O)O[C@H]1CC[C@H]2[C@@H]3CCc4cc(O)ccc4[C@H]3CC[C@]12C [ESTRADIOL VALERATE] | 291.5 | 129.8
14 | C[C@]12CC[C@@H]3c4ccc(O)cc4CC[C@H]3[C@@H]1CC[C@@H]2O [ESTRADIOL] | 125.9 | 131.9
15 | C[C@]12CC[C@@H]3c4ccc(O)cc4CC[C@H]3[C@@H]1C[C@@H](O)[C@@H]2O [ESTRIOL] | 110.2 | 102.7
16 | CC(=O)Oc1ccc2c(c1)CCC1C2CC[C@]2(C)C(=O)CCC12 (some centres not stated) [ESTRONE ACETATE] | 204.8 | 109.5
17 | C[C@]12CCC3c4ccc(OC(=O)c5ccccc5)cc4CCC3C1CCC2=O (some centres not stated) [ESTRONE BENZOATE] | 121 | 95.01
18 | O=C(Cn1ccnc1[N+](=O)[O-])NCCO [ETANIDAZOLE] | 72.81 | 76.09
19 | C=C(CC)C(=O)c1ccc(OCC(=O)O)c(Cl)c1Cl [ETHACRYNIC ACID] | 171.8 | 111.8
20 | C#C[C@]1(O)CC[C@H]2[C@@H]3CCc4cc(O)ccc4[C@H]3CC[C@@]21C [ETHINYL ESTRADIOL] | 13.12 | 61.16
21 | CCN(CC)C(C)CN1c2ccccc2Sc2ccccc21.Cl (configuration not stated) [ETHOPROPAZINE HYDROCHLORIDE] | 60.6 | 85.68
22 | CCC1(C)CC(=O)NC1=O (configuration not stated) [ETHOSUXIMIDE] | 137.5 | 102.9
23 | CCOC(=O)c1c(C)cc(OC)cc1O [ETHYL EVERNINATE] | 111.1 | 102.6

Row | SMILES | residual activity [1] [%] | residual activity [2] [%]
24 | CCOC(=O)c1c(C)cc(O)c(C=O)c1O [ETHYL HEMATOMMATE] | 61.89 | 77.96
25 | CCC(N)C(O)c1ccc(O)c(O)c1.Cl (configuration not stated) [ETHYLNOREPINEPHRINE HYDROCHLORIDE] | 130.8 | 104.2
26 | CCc1cccc2c3c([nH]c12)C(CC)(CC(=O)O)OCC3 (configuration not stated) [ETODOLAC] | 68.27 | 103.6
27 | Cn1c(=O)c2c(ncn2CCO)n(C)c1=O [ETOFYLLINE] | 64.41 | 86.25
28 | CC1CC(OC(=O)C(O)c2ccccc2)CC(C)(C)N1C.Cl (configuration not stated) [EUCATROPINE HYDROCHLORIDE] | 84.86 | 107.8
29 | C[n+]1c2cc(N)ccc2cc2ccc(N)cc21.[Cl-] [EUFLAVINE] | 105.1 | 93.94
30 | Cc1cc(=O)c2c(O)c(C)c(O)cc2o1 [EUGENITOL] | 77.61 | 88.28
31 | C=CCc1ccc(O)c(OC)c1 [EUGENOL] | 106 | 104.3
32 | C=C(C)c1cc2cc(C(C)=O)c(O)cc2o1 [EUPARIN] | 94.93 | 98.85
33 | COc1ccc(-c2cc(=O)c3c(O)c(OC)c(OC)cc3o2)cc1O [EUPATORIN] | 87.53 | 72.8
34 | COc1cc(C)c(C(=O)O)c(O)c1 [EVERNINIC ACID] | 82.73 | 90.88
35 | COc1c2ccoc2nc2c(OC)c(OCC(O)C(C)(C)O)ccc12 (configuration not stated) [EVOXINE] | 94 | 94.63
36 | CCCCCCOc1ccccc1C(N)=O [EXALAMIDE] | 188.8 | 129.1
37 | O=C1[C@H](CC[C@H](O)c2ccc(F)cc2)[C@@H](c2ccc(O)cc2)N1c1ccc(F)cc1 [EZETIMIBE] | 51.36 | 30.63
38 | CC(=O)OCC(CCn1cnc2cnc(N)nc21)COC(C)=O [FAMCICLOVIR] | 68.22 | 68.05
39 | COc1ccc2cc1Oc1ccc(cc1)C[C@H]1c3cc(c(OC)cc3CCN1C)Oc1c(OC)c(OC)cc3c1[C@H](C2)N(C)CC3 [FANCHININ] | 75.74 | 220.2
40 | CC(C)=CCC/C(C)=C/CC/C(C)=C/CO [FARNESOL] | 89.38 | 89.91
41 | CC(C)(OC(=O)c1ccccc1)[C@@H]1Cc2cc3ccc(=O)oc3cc2O1 [FELAMIDIN] | 115.2 | 168.9
42 | COC(=O)Nc1nc2ccc(Sc3ccccc3)cc2[nH]1 [FENBENDAZOLE] | 105.4 | 102.5
43 | O=C(O)CCC(=O)c1ccc(-c2ccccc2)cc1 [FENBUFEN] | 172.9 | 86.33
44 | CCC(C(N)=O)c1ccccc1 (configuration not stated) [FENBUTYRAMIDE] | 101.6 | 100.4
45 | CC(NCCC(c1ccccc1)c1ccccc1)c1ccccc1.Cl (configuration not stated) [FENDILINE HYDROCHLORIDE] | 90.27 | 114.6
46 | CC(C)OC(=O)C(C)(C)Oc1ccc(C(=O)c2ccc(Cl)cc2)cc1 [FENOFIBRATE] | 82.56 | 90.21
